Results reported in US7781421B2, “Neuroactive 13, 24-cyclo-18, 21-dinorcholanes and structurally related pentacyclic steriods” (Washington University, priority 2003, dated 2010).
Where two headings read alike, the source gives them in different places.

Columns and labels:
Xenopus laevis tadpoles = experiment: Tadpole loss of righting (LRR) and swimming (LSR) reflexes; assay type: in vivo; settings: 3 h equilibration at room temperature; for EC50: read-out: LSR EC50 (loss of swimming response)
Procedure: Tadpole LRR was measured as described previously. (See, Wittmer, L. L., et al., Enantioselectivity of steroid-induced γ-aminobutyric acidA receptor modulation and anesthesia, Mol. Phar., 1996, 50:1581-1586). Briefly, groups of 10 early prelimb-bud stage Xenopus laevis tadpoles (Nasco, Fort Atkinson, Wis.) were placed in 100 mL of oxygenated Ringer's stock solution containing various concentrations of compound. Compounds were added from a 10 mM DMSO stock (final concentration of DMSO in test solutions ≦0.1%). After equilibrating at room temperature for 3 h, tadpoles were evaluated using the LRR and LSR behavioral endpoints. LRR was defined as failure of the tadpole to right itself within 5 sec after being flipped by a smooth glass rod. LSR was defined as failure of the tadpole to swim when touched by a smooth glass rod. In general, the tadpoles regained their righting and swimming reflexes when placed in fresh oxygenated Ringer's solution. Control beakers containing up to 0.6% DMSO produced no LRR or LSR in tadpoles.
Tadpole LRR and LSR concentration-response curves were fit using Sigma Plot version 3.0 to the Hill equation f=Rmax/{1+([conc]/EC50)^n}
where Rmax is the maximum effect, [conc] is the steroid concentration, EC50 is the half-maximal effective concentration, and n is the Hill coefficient.

[1] = biological target: T1, rat α1β2γ2 GABAA Receptor (Rattus norvegicus, UniProt P18508+P62813+P63138, INS375LLRMFSFK); experiment: Xenopus oocyte two-electrode voltage-clamp electrophysiology; assay type: cell-based; settings: for Oocyte electrophysiology, ratio of currents in presence/absence of compound, 0.1 μM: 0.1 μM compound co-applied with 2 μM GABA; for Oocyte electrophysiology, ratio of currents in presence/absence of compound, 0.1 μM / Oocyte electrophysiology, ratio of currents in presence/absence of compound, 1 μM / Oocyte electrophysiology, ratio of currents in presence/absence of compound, 10 μM: −70 mV; for Oocyte electrophysiology, ratio of currents in presence/absence of compound, 1 μM: 1 μM compound co-applied with 2 μM GABA; for Oocyte electrophysiology, ratio of currents in presence/absence of compound, 10 μM: 10 μM compound co-applied with 2 μM GABA; for Gating (10 μM), ratio of compound only current/2 μM GABA current: direct current gated by 10 μM compound in the absence of GABA
T1 construct: from linearized pBluescript vectors containing receptor coding regions; expressed in transfected cells; host or cells: Xenopus laevis oocytes injected with in vitro transcribed capped mRNA
Procedure: Stage V-VI oocytes were harvested from sexually mature female Xenopus laevis (Xenopus One, Northland, Mich.) under 0.1% tricaine (3-aminobenzoic acid ethyl ester) anesthesia. Oocytes were defolliculated by shaking for 20 min at 37° C. in collagenase (2 mg/ml) dissolved in calcium-free solution containing (in mM): 96 NaCl, 2 KCl, 1 MgCl2, and 5 HEPES at pH 7.4. Capped mRNA, encoding rat GABAA receptor α1, β2 and γ2L subunits was transcribed in vitro using the mMESSAGE mMachine Kit (Ambion, Austin, Tex.) from linearized pBluescript vectors containing receptor coding regions. Subunit transcripts were injected in equal parts (20-40 ng total RNA) 8-24 hours following defolliculation. Oocytes were incubated up to 5 days at 18° C. in ND96 medium containing (in mM): 96 NaCl, 1 KCl, 1 MgCl2, 2 CaCl2 and 5 HEPES at pH 7.4, supplemented with pyruvate (5 mM), penicillin (100 U/ml), streptomycin (100 μg/ml) and gentamycin (50 μg/ml). The cDNAs for the rat GABAA-receptor subunits were originally provided by A. Tobin, University of California, Los Angels (α1), P. Malherbe, Hoffman-La Roche, Switzerland (β2), C. Fraser, National Institute on Alcohol Abuse and Alcoholism (γ2L).
Two-electrode voltage-clamp experiments were performed with a Warner OC725 amplifier 2-5 days following RNA injection. The extracellular recording solution was ND96 medium with no supplements. Intracellular recording pipettes were filled with 3 M KCl and had open tip resistances of ˜1 MΩ. Drugs were applied from a common tip via a gravity-driven multibarrel drug-delivery system. Steroids were simultaneously co-applied with GABA. Cells were clamped at −70 mV for all experiments, and peak current during 20 s drug applications was measured. Data acquisition and analysis were performed with pCLAMP software (Axon Instruments, California). Statistical differences were determined using a two-tailed Student's t-test.
The GABA concentration used for the control response was 2 μM. Each compound was evaluated on at least four different oocytes at the concentrations indicated, and the results reported are the ratio of the currents measured in the presence/absence of added compound. (G) represents direct current gated by 10 μM compound in the absence of GABA, and this current is reported as the ratio of compound only current/2 μM GABA current. Error limits are calculated as standard error of the means.

[2] = biological target: GABAA receptor ([35S]-TBPS binding site, rat brain cortical membranes); experiment: Displacement of [35S]-TBPS binding, rat brain cortical membranes; settings: 5 μM GABA, 2 nM [35S]-TBPS; ± standard error of the means
Procedure: Rat brain cortical membranes were prepared with minor modifications of the method previously reported. (Hawkinson, J. E., et al., Correlation of Neuroactive Steroid Modulation of [^35S]t-Butylbicyclophosophorothionate and [^3H]Flunitrazepam Binding and γ-Aminobutyric AcidA Receptor Function, Mol. Pharmacol., 1994, 46, 977-985). Briefly, frozen rat cerebral cortices (Pel-freez, Rogers, Ak.) were thawed and homogenized in 10 volumes of ice-cold 0.32 M sucrose using a glass/Teflon pestle. The homogenate was centrifuged at 1500×g for 10 min at 4° C. The resultant supernatant was centrifuged at 10,000×g for 30 min at 4° C. The pellet (P2) from this centrifugation was resuspended in 200 mM NaCl, 50 mM potassium phosphate buffer, pH 7.4, and centrifuged at 10,000×g for 20 min at 4° C. This washing procedure was done a total of three times, and then pellets were resuspended in buffer (˜4 mL/brain) using a glass/Teflon pestle. The membrane suspension was aliquoted, frozen in liquid nitrogen, and stored at −80° C. prior to use.
[^35S]-TBPS Binding assays were done according to the procedure described previously (Hawkinson, J. E., et al., Correlation of Neuroactive Steroid Modulation of [^35S]t-Butylbicyclophosophorothionate and [^3H]Flunitrazepam Binding and γ-Aminobutyric AcidA Receptor Function, Mol. Pharmacol., 1994, 46, 977-985) with modifications. Briefly, aliquots of membrane solution (0.5 mg/mL final protein concentration in assay) were incubated with 5 μM GABA, 2 nM [^35S]-TBPS (45-120 Ci/mmol), and 5 μL aliquots of steroid in DMSO solution (final assay concentrations ranged from 1 nM to 10 μM), and brought to a final volume of 1 mL with 200 mM NaCl, 50 mM potassium phosphate buffer, pH 7.4. […] Assay tubes were incubated for 2 hr at room temperature. A Brandel (Gaithersburg, Md.) cell harvester was used for filtration of the assay tubes through Whatman/GF/C glass filter paper. Filter paper was rinsed with 4 mL of ice-cold buffer three times. Radioactivity bound to the filters was read by liquid scintillation counter and data was fit using Sigma Plot version 3.0 to the Hill equation i. f=Rmax/{1+([conc]/IC50)^n}
Where Rmax is the maximal effect, [conc] is steroid concentration, IC50 is the half-maximal inhibitor concentration and n is the Hill coefficient. Each data point was determined in triplicate and 2-3 full concentration-response curves were generated for each steroid.

T1 sequence (P62813 28-455, stated change not applied): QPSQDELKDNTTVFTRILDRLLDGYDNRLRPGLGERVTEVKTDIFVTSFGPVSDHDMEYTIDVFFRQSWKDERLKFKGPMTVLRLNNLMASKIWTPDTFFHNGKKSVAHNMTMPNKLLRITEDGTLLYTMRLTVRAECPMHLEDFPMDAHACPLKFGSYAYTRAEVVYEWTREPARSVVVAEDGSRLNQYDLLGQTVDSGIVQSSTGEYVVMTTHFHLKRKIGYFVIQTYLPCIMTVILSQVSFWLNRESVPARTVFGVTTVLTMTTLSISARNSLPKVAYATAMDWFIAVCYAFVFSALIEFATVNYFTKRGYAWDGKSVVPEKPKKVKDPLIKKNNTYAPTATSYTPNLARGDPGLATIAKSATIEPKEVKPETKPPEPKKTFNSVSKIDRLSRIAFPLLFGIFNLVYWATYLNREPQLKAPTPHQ
T1 sequence (P63138 26-474, stated change not applied): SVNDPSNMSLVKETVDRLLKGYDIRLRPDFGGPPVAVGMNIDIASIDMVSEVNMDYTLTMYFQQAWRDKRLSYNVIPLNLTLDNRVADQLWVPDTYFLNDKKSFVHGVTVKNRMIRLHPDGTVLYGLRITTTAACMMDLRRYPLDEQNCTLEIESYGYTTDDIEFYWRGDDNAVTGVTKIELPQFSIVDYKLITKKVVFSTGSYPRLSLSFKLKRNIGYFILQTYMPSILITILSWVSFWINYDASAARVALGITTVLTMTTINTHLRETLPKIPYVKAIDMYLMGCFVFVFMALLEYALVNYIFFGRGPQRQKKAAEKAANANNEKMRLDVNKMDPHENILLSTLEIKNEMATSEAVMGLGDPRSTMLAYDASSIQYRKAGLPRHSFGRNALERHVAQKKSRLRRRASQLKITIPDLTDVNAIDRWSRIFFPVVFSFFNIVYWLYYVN
T1 sequence (P18508 with tags, fused parts or gaps INS375LLRMFSFK): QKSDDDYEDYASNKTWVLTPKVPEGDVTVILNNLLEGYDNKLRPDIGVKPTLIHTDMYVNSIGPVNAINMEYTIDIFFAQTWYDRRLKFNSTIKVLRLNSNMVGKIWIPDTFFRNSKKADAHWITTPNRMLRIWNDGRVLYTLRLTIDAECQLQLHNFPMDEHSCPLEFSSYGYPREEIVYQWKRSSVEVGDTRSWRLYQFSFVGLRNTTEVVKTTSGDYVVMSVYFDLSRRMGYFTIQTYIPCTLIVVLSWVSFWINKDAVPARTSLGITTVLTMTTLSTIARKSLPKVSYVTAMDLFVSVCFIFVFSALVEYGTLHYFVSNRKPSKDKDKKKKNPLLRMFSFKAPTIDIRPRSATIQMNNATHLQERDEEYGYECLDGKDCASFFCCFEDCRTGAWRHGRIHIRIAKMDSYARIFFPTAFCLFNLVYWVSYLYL

| SMILES | LRR ED50 (loss of righting response) (Xenopus laevis tadpoles) [µM] | EC50 (Xenopus laevis tadpoles; Xenopus laevis, 3 h) [µM] | Oocyte electrophysiology, ratio of currents in presence/absence of compound, 0.1 μM [1] | Oocyte electrophysiology, ratio of currents in presence/absence of compound, 1 μM [1] | Oocyte electrophysiology, ratio of currents in presence/absence of compound, 10 μM [1] | Gating (10 μM), ratio of compound only current/2 μM GABA current [1] | melting point [°C] | IC50 [2] [µM] | LSR EC50 (loss of swimming response) (Xenopus laevis tadpoles) | EC50 (Xenopus laevis tadpoles) [µM] | Reversibility of steroid effect on GABA current (FIG. 1A) ([1]; 500 nM compound, 2 μM GABA, GABA recovery panel) |
| --- | --- | --- | --- | --- | --- | --- | --- | --- | --- | --- | --- |
| C[C@]12CC[C@@H](O)C[C@H]1CCC1C3CCC4CCC(=O)C[C@@]43CCC12 (stereo partly drawn) [Compound 4b, (3α,5β)-3-Hydroxy-13,24-cyclo-18,21-dinorcholan-23-one] | 1.44 ± 0.02 | 3.55 ± 1.15 | 0.97 ± 0.03 | 1.03 ± 0.08 | 3.17 ± 0.42 | 0.01 ± 0.01 | 197 to 198 | 0.899 ± 0.15 | – | – | – |
| C[C@]12CC[C@@H](O)C[C@@H]1CCC1C3CC[C@@H]4C(C#N)=CCC[C@]34CCC12 (stereo partly drawn) [Compound 57, (3α,5α)-3-Hydroxy-13,24-cyclo-18,21-dinorchol-20(22)-ene-20-carbonitrile] | 0.42 | – | 0.91 ± 0.03 | 0.96 ± 0.04 | 3.18 ± 0.24 | 0.01 ± 0.02 | 193 to 195 | 0.433 ± 0.03 | None @ 10 | – | – |
| CC12CCC(O)CC1CCC1C2CCC23C(=O)C=CCC2CCC13 (stereo not drawn) [Compound 35a, (3α,5α)-3-Hydroxy-13,24-cyclo-18,21-dinorchol-22-en-24-one] | 1.02 ± 0.0 | – | 1.98 ± 0.25 | 8.33 ± 0.75 | 9.45 ± 4.19 | 0.07 ± 0.10 | 242 to 243 | 0.197 ± 0.023 | – | 2.66 | readily reversible |
| CC12CCC(O)CC1CCC1C2CCC23C=CC(=O)CC2CCC13 (stereo not drawn) [Compound 30a, (3α,5α)-3-Hydroxy-13,24-Cyclo-18,21-dinorchol-23-en-22-one] | 0.73 ± 0.16 | 5.48 ± 0.09 | 1.12 ± 0.08 | 1.54 ± 0.30 | 5.07 ± 0.98 | −0.04 ± 0.05 | 168 to 170 | 1.26 ± 0.1 | – | – | – |
